Experimental data from patent publication US12521393B2, “Cytotoxicity targeting chimeras for CCR2-expressing cells” (GLAXOSMITHKLINE INTELLECTUAL PROPERTY DEVELOPMENT LIMITED, priority 2021, dated 2026).
Counter-ions that a name gives are not always drawn.

Legend:
[1] = target: human alpha1 nicotinic acetylcholine (nACh) receptor (Homo sapiens, UniProt P02708); test: Nicotinic acetylcholine receptor antagonism assay, IONFlux automated patch clamp (Example 203); assay type: cell-based
Procedure: Cells expressing human alpha1 nicotinic acetylcholine (nACh) receptor (nAChR) were washed and dissociated using Trypsin containing buffer. Cells were then washed and seeded at a density of 3-5 million cells/mL and allowed to grow for 3 days. Then, 60-80 μL of cells were added to plates and incubated with dose response of an ARM compound of Formula (I) with a top concentration of either 10 μM or 100 μM. The receptor was then stimulated via addition of acetylcholine (ACh) and activation of the receptor was monitored via the IONFlux automated patch clamp system. IonFlux Data Analyzer software was utilized to perform leak subtraction and measure (min) peak current amplitude.
Data processing: (1) Current values recorded for vehicle only applications in individual traps/patterns were subtracted from corresponding current amplitude values for control, test article and control+test article. (2) Control response was calculated as % of the average response of the 3rd out of total 3 ACh (10 mM) applications alone. In rare situations, if the 3rd ACh response was obscured due to technical artifacts, the 2nd and/or 1st ACh (10 mM) application was considered as control. The peak current amplitude generated in the presence of each test article concentration was then used to calculate the % inhibition as compared to control response (10 mM ACh alone). These estimates were further corrected for vehicle response and run down corrected by normalizing with time matched control responses (10 mM ACh alone). The corrected percentages were then fit with a non-linear function in GraphPad Prism 6 (or later versions) to determine the IC50.
Exclusion criteria: (i) any n's with poor recording quality, (ii) control current amplitude <500 pA or (iii) significant outliers, as determined by the Grubbs test.
ARMs compounds of Formula (I) of the invention were tested for antagonism of the nAChR in the above assay in […] experimental runs and the results are shown in Table 7 below. Antagonistic activity of the compounds of Formula (I) of the invention is reported as an IC50 value (half maximal inhibitory concentration) and the maximum percentage antagonism observed at the highest concentration of compound of Formula (I) tested, as indicated in Table 7. For compounds tested in more than one experimental run, the IC50 value is reported as an average

[2] = tested on: CCR2 expressing cells (CD11b+Ly6c+Hi) in peripheral blood; test: In vivo depletion assay, flow cytometry of peripheral blood (Example 201); set-up: species or system human CCR2 knock-in mice (C57 background); settings: hCCR2 knock-in mice, IV 0.1 mpk compound + 10 mpk anti-cotinine antibody (SEQ ID NO: 13/14), peripheral blood at 48 hr
Procedure: Stock solution preparation. Stock solutions of compounds of Formula (I) were prepared at 20 mg/mL and 100 mg/mL in […] for PK/PD and dose tolerability studies respectively. Stock solutions were stored at […] until further usage. on the day of experiment, the stock Solution of the compound of Formula (I) was removed from storage at […] and thawed at room temperature. Anti-cotinine antibody having a heavy chain sequence of SEC ID NO: 13 and a light chain sequence of SEQ ID NO: 14 (rabbit variable region sequence with mouse IgG2a Fc domain), if required was removed from storage at −80° C. and thawed at room temperature. Antibody vials were immediately transferred into wet ice after thawing. Compounds of Formula (I) were further diluted in DMSO as per experimental requirements.
The formulation composition was Saline: DMSI: PBS.
Saline was added based on the quantity required and then stock solution of the compound of Formula (I) prepared in DMSO, followed by addition of antibody in PBS. Formulations were incubated at room temperature for 30 minutes before administration to the mouse. DMSO was used at 1 to % (v/v) in the final formulation.
After bleeding, each mouse was sacrificed by cervical dislocation. […] Flow Cytometry Analysis:
CCR2 depletion in peripheral blood was determined by flow cytometry. Briefly, peripheral blood was collected from all animals at the end of study termination and processed. Blood samples were lysed using 1×RBC Lysis buffer and the resulting cell pellet was washed twice in FACS buffer (HBSS containing 5% FBS). Cells were subjected to Fc blocking using mouse Fc block from Biolegend (Trustain, anti-mouse CD16/32, Cat: 101319) to block non-specific binding followed by surface staining for immune markers (CD45, CD3, CD11 b, Ly6C, human CCR2). Surface staining was done for 30 minutes in ice and cells were washed twice to remove unbound antibodies. Cells were stained with 7AAD to determine viability and acquired on BD FACSVerse flow cytometer. Appropriate FMO controls and single-color controls were included in the experiment for gating and compensation respectively.
Percent depletion of CD11 b+Ly6c+Hi cells and CCR2 expression for the different treatment groups was determined.

[3] = tested on: endogenous target monocytes in human PBMC; test: PBMC ex vivo monocyte depletion flow cytometry assay (Example 200); assay type: cell-based; settings: with anti-cotinine antibody (SEQ ID NO: 11/12), 18-24 hours, EC50 in molar, read-out: Ex Vivo Depletion Assay pEC50 (converted)
Outline: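 Monocyte depletion is reported as pEC50, averaged or given individually across runs, and read by flow cytometry staining CD45, CD14 and CD4 with a viability dye. Compounds, diluted four-fold over 11 points from 1 mM DMSO stocks, were combined with 30 μg/mL Fc-enhanced anti-cotinine antibody and human PBMC, then incubated 18-24 h at 37° C.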

Sequence of human alpha1 nicotinic acetylcholine (nACh) receptor (P02708 21-457): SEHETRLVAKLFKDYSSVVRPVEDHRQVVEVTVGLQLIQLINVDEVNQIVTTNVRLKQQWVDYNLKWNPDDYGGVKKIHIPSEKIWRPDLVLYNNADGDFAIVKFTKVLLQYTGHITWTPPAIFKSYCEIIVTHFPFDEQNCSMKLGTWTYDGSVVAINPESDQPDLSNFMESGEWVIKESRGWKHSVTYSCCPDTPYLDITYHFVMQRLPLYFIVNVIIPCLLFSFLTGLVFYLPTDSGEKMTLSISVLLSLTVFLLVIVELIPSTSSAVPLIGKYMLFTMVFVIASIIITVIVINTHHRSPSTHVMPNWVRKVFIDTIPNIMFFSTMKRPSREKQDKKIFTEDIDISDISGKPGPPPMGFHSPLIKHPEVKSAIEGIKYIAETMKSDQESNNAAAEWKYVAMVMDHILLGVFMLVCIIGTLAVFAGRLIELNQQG
Sequence of human alpha1 nicotinic acetylcholine (nACh) receptor (P11230 24-501 partner): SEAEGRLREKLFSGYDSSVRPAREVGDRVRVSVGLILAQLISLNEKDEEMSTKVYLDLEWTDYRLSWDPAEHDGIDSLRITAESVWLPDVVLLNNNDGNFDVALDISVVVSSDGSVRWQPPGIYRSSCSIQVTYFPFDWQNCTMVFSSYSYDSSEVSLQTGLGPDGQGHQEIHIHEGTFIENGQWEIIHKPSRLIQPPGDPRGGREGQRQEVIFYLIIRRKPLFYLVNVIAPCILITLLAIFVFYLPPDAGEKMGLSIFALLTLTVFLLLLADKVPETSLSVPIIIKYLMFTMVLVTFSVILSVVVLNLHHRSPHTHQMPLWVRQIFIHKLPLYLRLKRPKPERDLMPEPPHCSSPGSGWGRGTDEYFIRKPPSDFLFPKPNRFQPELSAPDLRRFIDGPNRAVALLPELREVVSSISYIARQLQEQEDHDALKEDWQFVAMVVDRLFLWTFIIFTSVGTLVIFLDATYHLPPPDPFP
Sequence of human alpha1 nicotinic acetylcholine (nACh) receptor (Q07001 22-517 partner): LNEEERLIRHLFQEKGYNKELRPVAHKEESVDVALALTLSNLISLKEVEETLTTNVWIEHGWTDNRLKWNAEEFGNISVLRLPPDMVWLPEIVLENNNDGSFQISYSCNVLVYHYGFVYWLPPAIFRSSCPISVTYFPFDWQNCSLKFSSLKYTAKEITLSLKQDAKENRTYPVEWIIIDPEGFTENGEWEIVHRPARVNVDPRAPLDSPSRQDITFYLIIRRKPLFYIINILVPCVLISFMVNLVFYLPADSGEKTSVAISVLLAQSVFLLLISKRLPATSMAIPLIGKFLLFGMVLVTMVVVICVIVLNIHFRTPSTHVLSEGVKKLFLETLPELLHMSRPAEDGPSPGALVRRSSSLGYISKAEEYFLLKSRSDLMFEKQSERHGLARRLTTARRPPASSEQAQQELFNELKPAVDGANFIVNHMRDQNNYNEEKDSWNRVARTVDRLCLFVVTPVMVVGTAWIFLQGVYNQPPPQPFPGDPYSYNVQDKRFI

SMILES	% Depletion of CCR2 expressing cells [2] [%]	EC50 [3] [nM]	other results
CC(C)N(C)[C@@H]1CC[C@H](N2CC[C@H](Nc3ncnc4ccc(C(F)(F)F)cc34)C2=O)[C@H](NC(=O)[C@H]2C[C@@H](NC(=O)CCCO[C@H]3CC[C@H](OCCNC(=O)[C@H]4CC(=O)N(C)[C@@H]4c4cccnc4)CC3)C2)C1 [Example 9, (2S,3S)-N-(2-(((1S,4S)-4-(4-(((1S,3S)-3-(((1R,2S,5R)-5-(Isopropyl(methyl)amino)-2-((S)-2-oxo-3-((6-(trifluoromethyl)quinazolin-4-yl)amino)pyrrolidin-1-yl)cyclohexyl)carbamoyl)cyclobutyl)amino)-4-oxobutoxy)cyclohexyl)oxy)ethyl)-1-methyl-5-oxo-2-(pyridin-3-yl)pyrrolidine-3-carboxamide]			IC50 ([1]; antagonism of ACh-stimulated human alpha1 nAChR current, patch clamp): 82 µM; Emax at 100 µM ([1]; maximum percentage antagonism at maximum concentration tested 100 μM, read-out: Maximum Response): 53.9%
CCN1C(=O)C[C@H](C(=O)NCCO[C@H]2CC[C@H](OCCCC(=O)N[C@H]3CC[C@H](C(=O)N[C@@H]4C[C@H](N(C)C(C)C)CC[C@@H]4N4CC[C@H](Nc5ncnc6ccc(C(F)(F)F)cc56)C4=O)CC3)CC2)[C@H]1c1cccnc1 [Example 11, (2S,3S)-1-ethyl-N-(2-(((1,4-trans)-4-(4-(((1,4-trans)-4-(((1R,2S,5R)-5-(isopropyl(methyl)amino)-2-((S)-2-oxo-3-((6-(trifluoromethyl)quinazolin-4-yl)amino)pyrrolidin-1-yl)cyclohexyl)carbamoyl)cyclohexyl)amino)-4-oxobutoxy)cyclohexyl)oxy)ethyl)-5-oxo-2-(pyridin-3-yl)pyrrolidine-3-carboxamide]	91.57		
CC(C)N(C)[C@@H]1CC[C@H](N2CC[C@H](Nc3ncnc4ccc(C(F)(F)F)cc34)C2=O)[C@H](NC(=O)[C@H]2CC[C@H](NC(=O)CCCO[C@H]3CC[C@H](OCCNC(=O)[C@H]4CC(=O)N(C5CCC5)[C@@H]4c4cccnc4)CC3)CC2)C1 [Example 14, (2S,3S)-1-cyclobutyl-N-(2-(((trans)-4-(4-(((trans)-4-(((1R,2S,5R)-5-(isopropyl(methyl)amino)-2-((S)-2-oxo-3-((6-(trifluoromethyl)quinazolin-4-yl)amino)pyrrolidin-1-yl)cyclohexyl)carbamoyl)cyclohexyl)amino)-4-oxobutoxy)cyclohexyl)oxy)ethyl)-5-oxo-2-(pyridin-3-yl)pyrrolidine-3-carboxamide]	47.24		
CC(C)(C)N[C@@H]1CC[C@H](N2CC[C@H](Nc3ncnc4ccc(C(F)(F)F)cc34)C2=O)[C@H](NC(=O)[C@H]2CC[C@H](NC(=O)CCCO[C@H]3CC[C@H](OCCNC(=O)[C@H]4CC(=O)N(C5CCC5)[C@@H]4c4cccnc4)CC3)CC2)C1 [Example 15, (2S,3S)-N-(2-(((1R,4S)-4-(4-(((1R,4R)-4-(((1R,2S,5R)-5-(tert-butylamino)-2-((S)-2-oxo-3-((6-(trifluoromethyl)quinazolin-4-yl)amino)pyrrolidin-1-yl)cyclohexyl)carbamoyl)cyclohexyl)amino)-4-oxobutoxy)cyclohexyl)oxy)ethyl)-1-cyclobutyl-5-oxo-2-(pyridin-3-yl)pyrrolidine-3-carboxamide]	92.6		
CN1C(=O)C[C@H](C(=O)NCCOCCOCCOCCOCCOCCOCCOCCOCCC(=O)N[C@@H]2C[C@H](NC(C)(C)C)CC[C@@H]2N2CC[C@H](Nc3ncnc4ccc(C(F)(F)F)cc34)C2=O)[C@H]1c1cccnc1 [Example 36, (2S,3S)-N-(27-(((1R,2S,5R)-5-(tert-Butylamino)-2-((S)-2-oxo-3-((6-(trifluoromethyl)quinazolin-4-yl)amino)pyrrolidin-1-yl)cyclohexyl)amino)-27-oxo-3,6,9,12,15,18,21,24-octaoxaheptacosyl)-1-methyl-5-oxo-2-(pyridin-3-yl)pyrrolidine-3-carboxamide]	83.33		
CC(C)N(C)[C@@H]1CC[C@H](N2CC[C@H](Nc3ncnc4ccc(C(F)(F)F)cc34)C2=O)[C@H](NC(=O)[C@H]2CC[C@@H](NC(=O)CCCOCCCOCCCNC(=O)[C@H]3CC(=O)N(C)[C@@H]3c3cccnc3)CC2)C1 [Example 193, (2S,3S)-N-(3-(3-(4-(((1S,4s)-4-(((1R,2S,5R)-5-(Isopropyl(methyl)amino)-2-((S)-2-oxo-3-((6-(trifluoromethyl)quinazolin-4-yl)amino)pyrrolidin-1-yl)cyclohexyl)carbamoyl)cyclohexyl)amino)-4-oxobutoxy)propoxy)propyl)-1-methyl-5-oxo-2-(pyridin-3-yl)pyrrolidine-3-carboxamide]		0.2	
CC(C)N(C)[C@@H]1CC[C@H](N2CC[C@H](Nc3ncnc4ccc(C(F)(F)F)cc34)C2=O)[C@H](NC(=O)CCCCCCCCNCCOCCOCCOCCOCCNC(=O)[C@H]2CC(=O)N(C)[C@@H]2c2cccnc2)C1 [Example 195, (2S,3S)-N-(24-(((1R,2S,5R)-5-(Isopropyl(methyl)amino)-2-((S)-2-oxo-3-((6-(trifluoromethyl)quinazolin-4-yl)amino)pyrrolidin-1-yl)cyclohexyl)amino)-24-oxo-3,6,9,12-tetraoxa-15-azatetracosyl)-1-methyl-5-oxo-2-(pyridin-3-yl)pyrrolidine-3-carboxamide, 3Trifluoroacetic acid salt]		0.316	
CC(C)N(C)[C@@H]1CC[C@H](N2CC[C@H](Nc3ncnc4ccc(C(F)(F)F)cc34)C2=O)[C@H](NC(=O)CCCCCCCCNCCCCCCCCCCNC(=O)[C@H]2CC(=O)N(C)[C@@H]2c2cccnc2)C1 [Example 196, (2S,3S)-N-(10-((9-(((1R,2S,5R)-5-(Isopropyl(methyl)amino)-2-((S)-2-oxo-3-((6-(trifluoromethyl)quinazolin-4-yl)amino)pyrrolidin-1-yl)cyclohexyl)amino)-9-oxononyl)amino)decyl)-1-methyl-5-oxo-2-(pyridin-3-yl)pyrrolidine-3-carboxamide, 3Formic acid salt.]		0.2	
CC(C)N(C)[C@@H]1CC[C@H](N2CC[C@H](Nc3ncnc4ccc(C(F)(F)F)cc34)C2=O)[C@H](NC(=O)[C@H]2CC[C@@H](NC(=O)CCOCCCOCCCNC(=O)[C@H]3CC(=O)N(C)[C@@H]3c3cccnc3)CC2)C1 [Example 197, (2S,3S)-N-(3-(3-(3-(((1S,4s)-4-(((1R,2S,5R)-5-(Isopropyl(methyl)amino)-2-((S)-2-oxo-3-((6-(trifluoromethyl)quinazolin-4-yl)amino)pyrrolidin-1-yl)cyclohexyl)carbamoyl)cyclohexyl)amino)-3-oxopropoxy)propoxy)propyl)-1-methyl-5-oxo-2-(pyridin-3-yl)pyrrolidine-3-carboxamide]		1	
